Measurements published in patent US11484607B2, “PSMA-targeted NIR dyes and their uses” (On Target Laboratories, LLC, priority 2015, dated 2022).

Tests used:
[1] = target: T1, PSMA (Homo sapiens, UniProt Q04609); assay: Relative binding affinity of DUPA-NIR conjugates with respect to DUPA-FITC on 22Rv1 cells, flow cytometry; conditions: for affinity for PSMA (in words): in vitro binding affinity data; for Kd: conjugates with aromatic linkers, 1 h at 37° C., 100 nM DUPA-FITC
T1 construct: host or cells: 22Rv1 human prostate cancer cells
T1 sequence (Q04609 whole entry): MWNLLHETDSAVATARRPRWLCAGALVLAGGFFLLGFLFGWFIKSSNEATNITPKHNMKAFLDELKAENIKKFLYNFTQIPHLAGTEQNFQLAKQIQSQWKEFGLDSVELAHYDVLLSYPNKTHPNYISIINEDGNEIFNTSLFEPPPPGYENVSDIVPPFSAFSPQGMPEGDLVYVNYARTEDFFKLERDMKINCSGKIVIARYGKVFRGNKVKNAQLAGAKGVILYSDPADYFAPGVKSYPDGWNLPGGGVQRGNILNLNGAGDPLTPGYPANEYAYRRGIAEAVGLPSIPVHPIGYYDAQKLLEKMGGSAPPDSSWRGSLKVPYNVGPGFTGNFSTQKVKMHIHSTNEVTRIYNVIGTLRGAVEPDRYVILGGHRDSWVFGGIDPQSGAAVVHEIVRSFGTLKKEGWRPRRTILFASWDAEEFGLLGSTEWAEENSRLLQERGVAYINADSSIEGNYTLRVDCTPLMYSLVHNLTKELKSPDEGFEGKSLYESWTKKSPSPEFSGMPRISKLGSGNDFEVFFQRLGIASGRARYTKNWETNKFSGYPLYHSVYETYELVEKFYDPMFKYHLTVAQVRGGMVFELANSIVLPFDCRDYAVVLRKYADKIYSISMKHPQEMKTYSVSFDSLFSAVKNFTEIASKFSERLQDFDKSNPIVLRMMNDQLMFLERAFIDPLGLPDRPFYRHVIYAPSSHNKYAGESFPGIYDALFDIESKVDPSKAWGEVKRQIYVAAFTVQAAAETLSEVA
Protocol: (§1) FIG. 3—Relative binding affinities of DUPA-NIR conjugates 1-9 with respect to DUPA-FITC (14). PSMA-positive 22Rv1 human prostate cancer cells were incubated for 1 h at 37° C. in the presence of 100 nM DUPA-FITC with increasing concentrations of DUPA-NIR conjugates. […] Cell bound fluorescence was assayed as using flow cytometry.
as §1, with “6—Relative” for “3—Relative”, “with aromatic amino acids linkers” for “1-9”
as §1, with “3 Relative” for “3—Relative”
in vitro studies. […] PSMA-positive 22Rv1 human prostate cancer cells were incubated for 1 h at 37° C. in the presence of 100 nM DUPA-FITC with increasing concentrations of DUPA-NIR conjugates. […] Cell bound fluorescence was assayed as using flow cytometry.
PSMA-positive 22Rv1 human prostate cancer cells were incubated for 1 h at 37° C. in the presence of 100 nM DUPA-FITC with increasing concentrations of DUPA-NIR conjugates. […] Cell bound fluorescence was assayed as using flow cytometry.
as §1, with “24: Relative” for “3—Relative”, “conjugates” for “conjugates 1-9”
PSMA-positive 22Rv1 human prostate cancer cells were incubated for 1 h at 37° C. in the presence of 100 nM DUPA-FITC with increasing concentrations of DUPA-NIR conjugates. […] Cell bound fluorescence was assayed as using flow cytometry
Cancer cells were incubated for 1 h at 37° C. in the presence of 100 nM DUPA-FITC with increasing concentrations of compound 15. […] Cell bound fluorescence was assayed as using flow cytometry.

[2] = test system: human prostate tumor xenografts (22Rv1 cells); assay: Tissue biodistribution and tumor-to-tissue fluorescence ratio of DUPA-NIR conjugates, IVIS imaging; format: in vivo, mice; conditions: 2 h after tail vein injection
Protocol: In vivo studies. More specifically, biodistribution of DUPA-NIR conjugates 1-9 was monitored using fluorescence imaging of mice bearing human prostate tumor xenografts (22Rv1 cells). Male nude mice with 22Rv1 tumor xenografts were injected with DUPA-NIR dye conjugates via tail vein. The mice were euthanized 2 h after administration of the DUPA-NIR dye conjugate, selected tissues were harvested, and tissues were imaged with IVIS imager (ex=745 nm, em=ICG, exposure time=1 s).
The conjugates were also tested to show the ratio of tumor-to-tissue fluorescence. […] After imaging, fluorescence within a Region of interest (ROI) was measured for each tissue using In Vivo imaging software and tumor-to-tissue fluorescence was then calculated
(§2) in vivo studies. […] Male nude mice with 22Rv1 tumor xenografts were injected with DUPA-NIR dye conjugates via tail vein. The mice were euthanized 2 h after administration of the DUPA-NIR dye conjugate, selected tissues were harvested, and tissues were imaged with IVIS imager (ex=745 nm, em=ICG, exposure time=1 s). After imaging, fluorescence within a Region of interest (ROI) was measured for each tissue using In Vivo imaging software and tumor-to-tissue fluorescence was then calculated.
Male nude mice with 22Rv1 tumor xenografts were injected with DUPA-NIR dye conjugates via tail vein. The mice were euthanized 2 h after administration of the DUPA-NIR dye conjugate, selected tissues were harvested, and tissues were imaged with IVIS imager (ex=745 nm, em=ICG, exposure time=1 s). After imaging, fluorescence within a Region of interest (ROI) was measured for each tissue using In Vivo imaging software and tumor-to-tissue fluorescence was then calculated.
as §2, with “In vivo” for “in vivo”

[3] = test system: 22Rv1 human prostate tumor xenograft; assay: Time dependent whole-body fluorescence imaging of DUPA-NIR conjugates, IVIS imager; format: in vivo, mouse; conditions: for whole-body imaging: 6 or 20 nmol, imaged at different time intervals
Protocol: 22Rv1 human prostate tumor xenograft bearing mouse was injected with 20 nmol of 15 and imaged with IVIS imager (ex=745 nm, em=ICG, exposure time=1 s) at different time intervals.
22Rv1 human prostate tumor xenograft bearing mouse was injected with 20 nmol of 23 and imaged with IVIS imager (ex=745 nm, em=ICG, exposure time=1 s) at different time intervals.
22Rv1 human prostate tumor xenograft bearing mouse was injected with 20 nmol of 25 and imaged with IVIS imager (ex=745 nm, em=ICG, exposure time=1 s) at different time intervals
22Rv1 human prostate tumor xenograft bearing mouse was injected with 6 nmol of 35 and imaged with IVIS imager (ex=745 nm, em=ICG, exposure time=1 s) at different time intervals.
22Rv1 human prostate tumor xenograft bearing mouse was injected with 6 nmol of 36 and imaged with IVIS imager (ex=745 nm, em=ICG, exposure time=1 s) at different time intervals.
22Rv1 human prostate tumor xenograft bearing mouse was injected with 20 nmol of 39 and imaged with IVIS imager (ex=745 nm, em=ICG, exposure time=1 s) at different time intervals.
22Rv1 human prostate tumor xenograft bearing mouse was injected with 20 nmol of 40 and imaged with IVIS imager (ex=745 nm, em=ICG, exposure time=1 s) at different time intervals.
22Rv1 human prostate tumor xenograft bearing mouse was injected with 20 nmol of 41 and imaged with IVIS imager (ex=745 nm, em=ICG, exposure time=1 s) at different time intervals.
FIG. 25: Overlay of whole body or half body fluorescence image over white light images after adjusting the threshold. 22Rv1 human prostate tumor xenograft bearing mouse was injected with 20 nmol of 54 and imaged with IVIS imager (ex=745 nm, em=ICG, exposure time=1 s) at different time intervals.
22Rv1 human prostate tumor xenograft bearing mouse was injected with 20 nmol of 55 and imaged with IVIS imager (ex=745 nm, em=ICG, exposure time=1 s) at different time intervals.
22Rv1 human prostate tumor xenograft bearing mouse was injected with 20 nmol of 56 and imaged with IVIS imager (ex=745 nm, em=ICG, exposure time=1 s) at different time intervals.
22Rv1 human prostate tumor xenograft bearing mouse was injected with 20 nmol of 57 and imaged with IVIS imager (ex=745 nm, em=ICG, exposure time=1 s) at different time intervals
22Rv1 human prostate tumor xenograft bearing mouse was injected with 20 nmol of 58 and imaged with IVIS imager (ex=745 nm, em=ICG, exposure time=1 s) at different time intervals
22Rv1 human prostate tumor xenograft bearing mouse was injected with 20 nmol of 60 and imaged with IVIS imager (ex=745 nm, em=ICG, exposure time=1 s) at different time intervals.
in vivo studies. […] 22Rv1 human prostate tumor xenograft bearing mouse was injected with 20 nmol of 63 and imaged with IVIS imager (ex=745 nm, em=ICG, exposure time=1 s) at different time intervals.
22Rv1 human prostate tumor xenograft bearing mouse was injected with 6 nmol of 63 and imaged with IVIS imager (ex=745 nm, em=ICG, exposure time=1 s) at different time intervals.
22Rv1 human prostate tumor xenograft bearing mouse was injected with 20 nmol of 64 and imaged with IVIS imager (ex=745 nm, em=ICG, exposure time=1 s) at different time intervals.
22Rv1 human prostate tumor xenograft bearing mouse was injected with 6 nmol of 15 and imaged with IVIS imager (ex=745 nm, em=ICG, exposure time=1 s) at different time intervals.

[4] = Concentration dependent UV spectrometric study of higher order aggregates; format: physicochemical
Protocol: Possible OTL78-related hypersensitivity in human was next examined using basophil activation assay. Drug related hypersensitivity is mainly due to immune response caused by cross-linking of immunoglobulin E (IgE) expressed on mast cells and basophils (FIG. 47D) resulting in activation and subsequent degranulation to release vasoactive amines, prostaglandins, and cytokines (29). Since cross-linking of IgE can be due to aggregates, concentration dependent UV spectrometric studies were conducted to determine higher order aggregates of OTL78.

Row | affinity for PSMA (in words) [1] | Compound | tumor-to-background ratio (TBR), in words [2] | sites of accumulation in whole-body imaging ([3]; 6 nmol, time dependent) | whole-body imaging [3] | Kd [1] | higher aggregates ([4]; 75 μM concentration in saline) | higher order aggregates (UV spectra), in words ([4]; 75 μM in saline)
1 | very high affinity | CC1(C)C(/C=C/C2=C(Oc3ccc(C[C@H](NC(=O)[C@H](Cc4ccccc4)NC(=O)CCCCCCCNC(=O)CC[C@H](NC(=O)N[C@@H](CCC(=O)O)C(=O)O)C(=O)O)C(=O)O)cc3)C(=C/C=C3/N(CCCCS(=O)(=O)O)c4ccc(S(=O)(=O)O)cc4C3(C)C)/CCC2)=[N+](CCCCS(=O)(=O)[O-])c2ccc(S(=O)(=O)O)cc21 [Compound 15] | excellent | accumulated in PSMA-positive tumors and kidneys | very good whole-body imaging data within 2-4 hours |  |  | 
2 | very high affinity | CC1(C)C(/C=C/C2=C(SC[C@H](NC(=O)[C@H](Cc3ccccc3)NC(=O)CCCCCCCNC(=O)CC[C@H](NC(=O)N[C@@H](CCC(=O)O)C(=O)O)C(=O)O)C(=O)O)C(=C/C=C3/N(CCCCS(=O)(=O)O)c4ccc(S(=O)(=O)O)cc4C3(C)C)/CCC2)=[N+](CCCCS(=O)(=O)[O-])c2ccc(S(=O)(=O)O)cc21 [Compound 25] |  |  | very good whole-body imaging data within 2-4 hours | 6.3 nM |  | 
3 |  | CC1(C)C(/C=C/C2=C(Oc3ccc(C[C@H](NC(=O)[C@H](Cc4ccccc4)NC(=O)CCOCCOCCNC(=O)CC[C@H](NC(=O)N[C@@H](CCC(=O)O)C(=O)O)C(=O)O)C(=O)O)cc3)C(=C/C=C3/N(CCCCS(=O)(=O)O)c4ccc(S(=O)(=O)O)cc4C3(C)C)/CCC2)=[N+](CCCCS(=O)(=O)[O-])c2ccc(S(=O)(=O)O)cc21 [Compound 35] | excellent |  | very good whole-body imaging data within 2-4 hours | 23.9 nM |  | 
4 | very high affinity | CC1(C)C(/C=C/C2=C(Oc3ccc(C[C@H](NC(=O)[C@](C)(Cc4ccc(F)cc4)NC(=O)CCOCCOCCNC(=O)CC[C@H](NC(=O)N[C@@H](CCC(=O)O)C(=O)O)C(=O)O)C(=O)O)cc3)C(=C/C=C3/N(CCCCS(=O)(=O)O)c4ccc(S(=O)(=O)O)cc4C3(C)C)/CCC2)=[N+](CCCCS(=O)(=O)[O-])c2ccc(S(=O)(=O)O)cc21 [Compound 36] |  |  | very good whole-body imaging data within 2-4 hours |  |  | 
5 | very high affinity | CC1(C)C(/C=C/C2=C(Oc3ccc(C[C@H](NC(=O)[C@H](CCCNC(=N)N)NC(=O)[C@H](Cc4ccccc4)NC(=O)CCCCCCCNC(=O)CC[C@H](NC(=O)N[C@@H](CCC(=O)O)C(=O)O)C(=O)O)C(=O)O)cc3)C(=C/C=C3/N(CCCCS(=O)(=O)O)c4ccc(S(=O)(=O)O)cc4C3(C)C)/CCC2)=[N+](CCCCS(=O)(=O)[O-])c2ccc(S(=O)(=O)O)cc21 [Compound 41] |  |  | very good whole-body imaging |  |  | 
6 |  | OTL38 [reference compound] |  |  |  |  | > 50% | concentration dependent aggregation peak
